Experimental data published in US20040147495A1, “Sapogenin derivatives, their synthesis and use, and methods based upon their use” (priority 2001, published 2004).

Assays:
muscarinic receptor [1] = assay: Muscarinic receptor density in brain of aged rats (dual-site competitive 3H-QNB binding); type: in vivo, rat; details: 18 mg kg−1 day−1 in food for three months
Procedure: (§1) Aged Sprague-Dawley rats aged were divided randomly into 4 groups, one control and groups treated for three months with either sarsasapogenin, episarsasapogenin cathylate or smilagenin (18 mg kg^−1 day^−1, n=10). A control group (n=14) of untreated young rats was also included in the study. The daily dose of drug was mixed in a minimum amount of food and was administered every morning separately to each rat.
Tissue preparation: Brains were removed quickly after decapitation, frozen in dry ice, and transferred to a freezer. The brains were homogenised and the pellet was finally suspended in buffer.
Dual-site competitive ligand binding assay: ^3H-QNB (quinuclinidyl benzilate) was used as the radio-ligand which was non-selective to M receptor subtypes in vitro. Pirenzipine was used as the selective non-radioactive competing agent. Protein concentration was determined by the micro-Lowry method.

muscarinic receptor [2] = assay: Cell based assay: muscarinic receptor number in transfected CHO cells by [3H]NMS binding; set-up: species or system Chinese hamster; details: CHO cells expressing muscarinic receptor
Text: Chinese hamster ovary (CHO) cells transfected with a vector coding for a muscarinic receptor and/or beta adrenoreceptor. The cell line used for the majority of the experiments was a cell line expressing a muscarinic receptor.
The effects of epismilagenin cathylate, sarsasapogenin cathylate, episarsasapogenin cathylate, episarsasapogenin succinate, epismilagenin acetate and sarsasapogenin on the expression of m receptors in CHO cells transfected with vector for the m receptor were investigated. Receptor numbers were assayed using [^3H]NMS binding and subtracting non-specific binding. Compounds were dissolved in dimethyl sulphoxide (DMSO) and DMSO was used as a control.
Chinese hamster ovary (CHO) cells expressing high levels of muscarinic receptor (˜2.2 pmol mg protein^−1) were plated on a 24 well plate, 1 day before the start of the experiment. The culture medium was replaced with medium containing vehicle (DMSO) or the compounds.
The cells were incubated for 2/3 days, then after a medium change, cells were incubated for a further 2/3 days. The cells were incubated with a saturating concentration of labelled N-methyl-scopolamine, ([^3H]NMS). Cells were washed with ice cold phosphate-buffered saline (PBS) (3×) and bound [^3H]NMS determined by solubilising receptors with RIPA buffer followed by liquid scintillation counting.

Aged Sprague-Dawley rats = assay: Y-maze learning and memory test in aged rats; type: in vivo, rat; details: 18 mg kg−1 day−1 in food for three months
Procedure: as §1
A Y-maze apparatus was used for the learning and memory test. On the floor of each arm of the Y-maze is an array of copper rods to which electric current is applied whenever needed, with adjustable voltage. Each arm is 45 cm long and has a 15 W lamp at the end, which is turned on when needed. After 3 months drug administration, each rat was trained for 7 consecutive days, as follows. For each training session, the rat was put into one arm of the Y-maze, after two minutes rest, an electrical current was applied to the copper rods and the lamp of the clockwise arm was illuminated to indicate the non-stimulation area. If the rat went into that arm, one correct response was recorded, otherwise, one wrong response was recorded. This stimulation-response test was repeated 20 times each day, with a pause of 5 sec between each two consecutive tests. The number of correct responses following the twenty tests on the seventh day was used to express learning ability, (the higher the number the better the learning ability). The rats were then left resting for 30 days and the procedure was repeated once more. The number of correct responses of the 20 tests after the 30 day rest period was used to represent the memory ability

Sprague Dawley rats = assay: Alzheimer's disease model (amyloid β + ibotenic acid): step-through test; type: in vivo, rat; details: for Step through test Error No: 18 mg/kg/day by gastric tube for two months, wrong responses in 5 min, * p < 0.05; for number of wrong responses in step-through test (in words): 18 mg/kg/day, 5 min
Text: (§2) In addition the co-injection of amyloid β with a small amount of ibotenic acid into the rat hippocampus synergistically produces neuronal loss with infiltration of glial cells not only adjacent but also far from the injected site (Morimoto et al., 1998: Neuroscience, 84, 479-487).
(§3) Our studies used the method of Morimoto (Morimoto et al., 1998: Neuroscience, 84, 479-487) with some modifications (unilateral instead of bilateral injection). Three months old, Sprague Dawley rats, were randomly divided into different groups. Injection of amyloid β1-40 and ibotenic acid (both from Sigma) was accomplished by means of a stereotaxic instrument (Stoelting Co.) and the coordinates were AP=−0.5 mm […], L=−2.8 mm […], H=−7.0 mm (ventral to dura). The dose for each rat was amyloid β1-40 (4 μg) and ibotenic acid (1 μg) in 1 μl of saline. The injection was completed in 20 min, and the needle was withdrawn 10 min later. Then the skin was sutured.
(§4) Episarsasapogenin cathylate, sarsasapogenin cathylate, episarsasapogenin ethylsuccinate (comparison compound), episarsasapogenin, epismilagenin and diosgenin (all at a dosage of 18 mg/kg/day) were administered to animals as stable suspensions in CMC-Na (0.5%) once daily through a gastric tube. The control and the Alzheimer's model group were given the same volume of CMC-Na (0.5%) once daily. The drugs and vehicles were given for a period of two months, starting 20 days before operation.
The effect of test compounds on memory was assessed using the step-through test. A 60×15×15 cm box, divided into 2 equally sized rooms, one dark room with copper rod base, which was electrically charged (40 V ac) when in use, while the other was a light room but not electrically charged. Between the two rooms there is an opening (hole) for the rat to go through. The experiment is carried out for each rat on two consecutive days. The first day is for training; when the rat is adapted in the box for the first 3 min, then put in the light room, with its back toward the hole, and the copper rods of the dark room are charged for 5 min. The second day is for testing, when the number of crosses in 5 min are recorded. Improvements in memory are signalled by a reduction in the number of crosses.

[3] = test system: rat primary cortical neurons; assay: Neuroprotection against glutamate-induced neurodegeneration (LDH release); type: cell-based; details: rat primary cortical cultures pre-treated for 24 h, read 24 h after glutamate
Procedure: Rat cortical neurons were cultured for 10 days; at day 10 the medium was changed to a serum-free defined medium. On day 12, 24 hours before glutamate exposure, cultures were washed and medium was replaced with fresh medium containing positive control (β-oestradiol), test compounds (sarsasapogenin, episarsasapogenin cathylate or smilagenin) or vehicle control (DMSO, 0.25%).
On day 13, cultures were exposed to glutamate.
After the incubation period, the cultures were washed with and placed in fresh medium, supplemented with relevant compounds or vehicle to evaluate their protective effects, 24 h after glutamate exposure.
Neuronal cell survival was evaluated by measuring lactate dehydrogenase (LDH) activity released in the media 24 h after test compound treatment or glutamate+test compound exposure, using the CytoTox 96 non-radioactive kit and quantitated by measuring wavelength absorbance at 450 nm.

muscarinic receptor [4] = assay: Alzheimer's disease model (amyloid β + ibotenic acid): brain muscarinic receptor density by 3H-QNB; type: in vivo, rat; details: Alzheimer's model rats; for brain muscarinic receptor density (in words): 18 mg/kg/day; for Muscarinic receptor Density: 18 mg/kg/day by gastric tube for two months, * p < 0.05
Text: as §2, §3, §4
The brain samples were homogenised, centrifuged, and the pellet of centrifugation at 27000×g was re-homogenised and used for measurement. The concentration of ^3H-QNB was chosen at the saturation range. After incubation and separation, the bound portion was measured by liquid scintillation counter.

With `CCOC(=O)O[C@@H]1CC[C@@]2(C)[C@H](CC[C@@H]3[C@@H]2CC[C@]2(C)[C@@H]4[C@H](C[C@@H]32)O[C@]2(CC[C@H](C)CO2)[C@H]4C)C1` [episarsasapogenin cathylate, 3-Ethoxycarbonyl 5β,20α,22α,25S-spirostan-3α-ol] the “muscarinic receptor number in brain” value (muscarinic receptor [1]) was “significantly restored the muscarinic receptor number”, the “effect on decrease in muscarinic receptor number over the culturing period” value (from here on “effect on decrease”) (muscarinic receptor [2]) was “prevents the decrease in muscarinic receptor number” and the “learning and memory ability (Y-maze)” value (Aged Sprague-Dawley rats) was “restored the learning and memory ability”. For the same compound, the “Step through test Error No” value (Sprague Dawley rats) was 1.36 ± 0.92*, the “number of wrong responses in step-through test (in words)” value (“number of wrong responses” for short) (Sprague Dawley rats) was “significantly decreased the number of wrong responses” and the “glutamate-induced neurodegeneration (LDH release)” value [3] was “significant reduction in the glutamate-induced neurodegeneration”. The “brain muscarinic receptor density (in words)” value (muscarinic receptor [4]) was “significant elevation in brain muscarinic receptor density” and the “Muscarinic receptor Density” value (muscarinic receptor [4]) was 877 ± 89* fmol/mg/protein.
In the case of `C[C@@H]1CC[C@@]2(OC1)O[C@H]1C[C@H]3[C@@H]4CC[C@@H]5C[C@H](O)CC[C@]5(C)[C@H]4CC[C@]3(C)[C@H]1[C@@H]2C` [epismilagenin], the “Step through test Error No” value (Sprague Dawley rats) is reported as 1.73 ± 0.91*, the “number of wrong responses” value (Sprague Dawley rats) is reported as “significantly decreased the number of wrong responses” and the “brain muscarinic receptor density (in words)” value (muscarinic receptor [4]) is reported as “significant elevation in brain muscarinic receptor density”. For the same compound, the “Muscarinic receptor Density” value (muscarinic receptor [4]) was 877 ± 90* fmol/mg/protein.
With `C[C@@H]1CC[C@@]2(OC1)O[C@H]1C[C@H]3[C@@H]4CC[C@@H]5C[C@@H](O)CC[C@]5(C)[C@H]4CC[C@]3(C)[C@H]1[C@@H]2C` [smilagenin] the “muscarinic receptor number in brain” value (muscarinic receptor [1]) was “significantly restored the muscarinic receptor number”, the “learning and memory ability (Y-maze)” value (Aged Sprague-Dawley rats) was “restored the learning and memory ability” and the “glutamate-induced neurodegeneration (LDH release)” value [3] was “significant reduction in the glutamate-induced neurodegeneration”.
`CCOC(=O)CCC(=O)OC1CCC2(C)C(CCC3C2CCC2(C)C3CC3OC4(CCC(C)CO4)C(C)C32)C1` (centres unmarked) [episarsasapogenin ethylsuccinate, reference compound] was tested, and the “Step through test Error No” value (Sprague Dawley rats) was 3.73 ± 1.35, the “number of wrong responses” value (Sprague Dawley rats) was “ineffective in decreasing the number of wrong responses” and the “brain muscarinic receptor density (in words)” value (muscarinic receptor [4]) was “did not significantly change the muscarinic receptor density”. The “Muscarinic receptor Density” value (muscarinic receptor [4]) was 774 ± 79 fmol/mg/protein.
For `C[C@H]1CC[C@@]2(OC1)O[C@H]1C[C@H]3[C@@H]4CC[C@@H]5C[C@H](O)CC[C@]5(C)[C@H]4CC[C@]3(C)[C@H]1[C@@H]2C` [episarsasapogenin], the “Step through test Error No” value (Sprague Dawley rats) was 1.50 ± 1.18*, the “number of wrong responses” value (Sprague Dawley rats) was “significantly decreased the number of wrong responses” and the “brain muscarinic receptor density (in words)” value (muscarinic receptor [4]) was “significant elevation in brain muscarinic receptor density”. The “Muscarinic receptor Density” value (muscarinic receptor [4]) was 869 ± 104* fmol/mg/protein.
With `CCOC(=O)O[C@H]1CC[C@@]2(C)[C@H](CC[C@@H]3[C@@H]2CC[C@]2(C)[C@@H]4[C@H](C[C@@H]32)O[C@]2(CC[C@H](C)CO2)[C@H]4C)C1` [sarsasapogenin cathylate, 3-Ethoxycarbonyl 5β,20α,22α,25S-spirostan-3-β-ol] the “effect on decrease” value (muscarinic receptor [2]) was “prevents the decrease in muscarinic receptor number”, the “Step through test Error No” value (Sprague Dawley rats) was 1.36 ± 1.03* and the “number of wrong responses” value (Sprague Dawley rats) was “significantly decreased the number of wrong responses”. For the same compound, the “brain muscarinic receptor density (in words)” value (muscarinic receptor [4]) was “significant elevation in brain muscarinic receptor density” and the “Muscarinic receptor Density” value (muscarinic receptor [4]) was 916 ± 158* fmol/mg/protein.
In the case of `CC1CCC2(OC1)OC1CC3C4CCC5CC(OC(=O)CCC(=O)O)CCC5(C)C4CCC3(C)C1C2C` (stereo not drawn) [episarsasapogenin succinate, mono-3α,5β,20α,22α,25S-spirostanyl succinate], the “effect on decrease” value (muscarinic receptor [2]) is reported as “prevents the decrease in muscarinic receptor number”.
`CCOC(=O)O[C@@H]1CC[C@@]2(C)[C@H](CC[C@@H]3[C@@H]2CC[C@]2(C)[C@@H]4[C@H](C[C@@H]32)O[C@]2(CC[C@@H](C)CO2)[C@H]4C)C1` [epismilagenin cathylate, 3-Ethoxycarbonyl 5β,20α,22α,25R-spirostan-3α-ol] was tested, and the “effect on decrease” value (muscarinic receptor [2]) was “prevents the decrease in muscarinic receptor number”.
In the case of `C[C@@H]1CC[C@@]2(OC1)O[C@H]1C[C@H]3[C@@H]4CC=C5C[C@@H](O)CC[C@]5(C)[C@H]4CC[C@]3(C)[C@H]1[C@@H]2C` [diosgenin, reference compound], the “Step through test Error No” value (Sprague Dawley rats) is reported as 3.75 ± 1.49, the “number of wrong responses” value (Sprague Dawley rats) is reported as “ineffective in decreasing the number of wrong responses” and the “brain muscarinic receptor density (in words)” value (muscarinic receptor [4]) is reported as “did not significantly change the muscarinic receptor density”. For the same compound, the “Muscarinic receptor Density” value (muscarinic receptor [4]) was 770 ± 68 fmol/mg/protein.
`C[C@H]1CC[C@@]2(OC1)O[C@H]1C[C@H]3[C@@H]4CC[C@@H]5C[C@@H](O)CC[C@]5(C)[C@H]4CC[C@]3(C)[C@H]1[C@@H]2C` [sarsasapogenin] was tested, and the “muscarinic receptor number in brain” value (muscarinic receptor [1]) was “significantly restored the muscarinic receptor number”, the “effect on decrease” value (muscarinic receptor [2]) was “prevents the decrease in muscarinic receptor number” and the “learning and memory ability (Y-maze)” value (Aged Sprague-Dawley rats) was “restored the learning and memory ability”. For the same compound, the “glutamate-induced neurodegeneration (LDH release)” value [3] was “significant reduction in the glutamate-induced neurodegeneration”.
